Measurements published in a melting point compilation (Tetko et al.; mined from patent text by program, amines drawn as free bases though some values may be those of a salt).

With `CNC(=O)c1ccc(C=CC(=O)NCC(=O)N(C)c2ccc(Cl)c(CBr)c2Cl)cc1` the melting point was 212 to 216 °C. `O=C(NC(CCl)c1ccc(-c2ccc(S(=O)(=O)C(F)F)cc2)cc1)c1c(F)cccc1F` (stereo not drawn) showed a melting point of 146 to 149 °C. Work on `Cc1cc(C)c2c(c1)-c1cc(Br)c(C)cc1P(=O)(O)O2` yielded a melting point of 260 °C. In the case of `CS(=O)(=O)SCCOC(=O)Cc1cccc(Nc2c(Cl)cccc2Cl)c1`, the melting point is reported as 41 to 44 °C. In the case of `CCOC(=O)c1cn(CC)c2cc(C3CCCCC3)ccc2c1=O`, the melting point is reported as 176 to 178 °C. With `O=C(Nc1cc(F)cc2c(Cl)ccnc12)c1c(Cl)cccc1Cl` the melting point was 200 to 213 °C. `COC1=C(OC)C(=O)c2ccccc2C1=O` showed a melting point of 116 to 117 °C. `COc1ccc(CN2Cc3cc(N(C)C)ccc3N3CC(=O)N=C23)cc1` gave a melting point of 196 to 200 °C. Molecule `CN(C)Cn1nc(-c2ccncc2)n(-c2ccccc2)c1=S` has a melting point of 173 to 174 °C. Work on `CN1CCN(c2nc3c(c(NCCO)n2)SCCC3)CC1` yielded a melting point of 162 to 164 °C. In the case of `COc1ccc(C(=O)Nc2ccc(Cl)cc2)cc1NC(=S)Nc1cc(Cl)cc(Cl)c1`, the melting point is reported as 180 to 185 °C. Work on `CCOC(=O)/C=C/c1c(C)nn(Cc2ccc(OCc3nc(-c4ccccc4)oc3C)cc2)c1C` yielded a melting point of 98 to 99 °C. In the case of `O=C(Nc1nnc(-c2ccc(Cl)cc2)s1)c1c(Cl)cccc1Cl`, the melting point is reported as over 260 °C. Molecule `CC(C)NC(=O)N1CCC(Cc2ccc(NC3=NCCN3)cc2)CC1` has a melting point of 191 to 192 °C. Work on `CC12C=CCC1C1CCC3=C(CCC(=O)C3)C1CC2` (stereo not drawn) yielded a melting point of 112 to 116 °C. `COc1cc(OC)nc(Oc2cccnc2CO)n1` gave a melting point of 115 °C. `CCOC(=O)C=C(Nc1ccc(O)c(=O)cc1)C(=O)OCC` gave a melting point of 108 °C. With `CCCCCC(=O)N(Cc1ccccc1)c1nc(C)ns1` the melting point was 72 °C. With `CCCCc1cc(OCc2ccc(-c3ccccc3C(=O)OC)cc2)c2ccccc2n1` the melting point was 105 °C. Molecule `O=C(O)CCc1ccc(C(=O)CN2CCN(c3ccncc3)CC2)cc1` has a melting point of 245 to 247 °C. For `O=C(CCc1ccncc1)NC(Cc1c[nH]c2ccccc12)C(=O)CCc1cc(C(F)(F)F)cc(C(F)(F)F)c1` (stereo not drawn), the melting point was 108 °C. `C=CCCC(O)=C(C#N)C(=O)Nc1ccc(Cl)cc1` showed a melting point of 138 °C. `Cn1c(=O)cc(-c2cccc(Cl)c2)c2cc(C(=O)c3ccc(I)cc3)ccc21` showed a melting point of 184 °C. `O=C1C=CC(=O)c2ncccc21` showed a melting point of 110 °C. `CCNSc1ccc([N+](=O)[O-])cc1C(Cl)(Cl)Cl` gave a melting point of 80 °C. For `O=C1C(c2c[nH]c3ccccc23)=C(c2c[nH]c3ccccc23)C(=O)N1c1ccccc1`, the melting point was over 290 °C. In the case of `Cc1ccc2nc(-c3ccc(C#N)cc3)cn2c1`, the melting point is reported as 225 to 226 °C. With `CC(=O)N1CCN(c2ccc(Nc3nccc(-c4sc(NCCc5ccccc5)nc4C)n3)cc2)CC1` the melting point was 212 to 213 °C. Work on `COC(=O)c1ccc(Cn2c(=O)c3cc(C(=O)NCc4cccc(OC)c4)sc3n(C)c2=O)cc1C` yielded a melting point of 175 to 177 °C. Work on `O=[N+]([O-])c1cnn2c1-c1ccccc1NC2c1ccccc1O` (stereo not drawn) yielded a melting point of 235 to 237 °C. With `CCCC12CCC(=O)C=C1c1c(cc(OCC(=O)O)c(Cl)c1Cl)C2O` (stereo not drawn) the melting point was 206 to 208 °C. With `COc1cc(-n2c(OC)nc(C(F)(F)C(F)(F)F)cc2=O)c(F)cc1Cl` the melting point was 123 to 125 °C. In the case of `COC[C@H]1CN(c2ccc([C@H]3CC[C@H](C#N)CC3)cc2)C(=O)O1`, the melting point is reported as 174 °C. `CC(=O)n1c(C)cc(=O)n(-c2cc(C(=O)OC(C)C)c(Cl)cc2F)c1=O` gave a melting point of 168 to 170 °C. Work on `S=C1N[C@@H](c2ccccc2)[C@H](c2ccccc2)N1` (relative stereo) yielded a melting point of 212 to 214 °C. Work on `Cc1nnsc1C(=O)Nc1ccc(-n2nc(C3CC3)c(Cl)c2C2CC2)c(F)c1` yielded a melting point of 153 to 156 °C. For `Nc1c(Cl)cc(C(=O)Cl)cc1C(F)(F)F`, the melting point was 110 to 115 °C. `NCC(c1cccc(OCc2ccccc2)c1)C1CCCCC1O` (mixture of isomers) showed a melting point of 139 to 141 °C. Work on `Cc1ccc2c(c1)CCC1=C2CCC(=O)N1` yielded a melting point of 204 to 205 °C. For `CCOCc1nc2c(N)nc3ccccc3c2n1CCC(N)=O`, the melting point was over 250 °C. `O=C1c2ccccc2C(=O)c2oc(-c3cccc(F)c3)nc21` showed a melting point of 230 °C. `COCCc1nc2c(N)nc3ccc(CCC(=O)N4CCOCC4)cc3c2n1CCCN1CCCC1=O` gave a melting point of 168 to 170 °C. `COc1cc(COc2nn(-c3ccccc3)cc2/C=C2\SC(=O)NC2=O)ccc1OCc1nc(-c2ccco2)oc1C` gave a melting point of 252 to 253 °C. For `COc1cc(OC)c2c(=O)[nH]c(-c3ccc(OC)c(N4CCN(C(C)C)CC4)n3)nc2c1`, the melting point was 208 to 210 °C. With `CCOC(=O)/C=C(/c1ccccc1)c1ccc([N+](=O)[O-])c(COS(C)(=O)=O)c1` the melting point was 87.8 °C. Molecule `C=C(CC(N)C(=O)OCC)CC(NC=O)(C(=O)OCC)C(=O)OCC` (stereo not drawn) has a melting point of 50 °C. In the case of `COC(=O)C[C@]1(C)C[C@@H](COc2ccc(-c3ccc(C#N)cc3)cc2)NC1=O`, the melting point is reported as 105 to 108 °C. For `OC(Cc1ccncc1)(c1ccc(F)cc1)c1ccc(F)cc1`, the melting point was 158 to 160 °C.
